From patent US7745651B2, “Cationic lipids and methods of use” (Protiva Biotherapeutics, Inc., priority 2004, dated 2010)
“And” between values parts separate entries of the source, which are not always exact repeats. Identical values can stand only once. “Also recorded” adds a separate entry of the source.

Legend:
[1] = Nucleic acid encapsulation in SNALP, RiboGreen fluorescence assay; format: physicochemical; settings: SNALP DSPC:Chol:PEG-C-DMA:Cationic Lipid 20:48:2:30 molar percent, siRNA; mean of 3 experiments, error is standard deviation
Protocol: (§1) SNALP Preparation: SNALP with a lipid composition of DSPC:Chol:PEG-C-DMA:Cationic Lipid (20:48:2:30 molar percent) were prepared using the spontaneous vesicle formation by ethanol dilution method [Jeffs et al., Pharm. Res. In Press (2005)]. The sample's were diafiltered against 100 mL of PBS (20 wash volumes) using a cross flow ultrafiltration cartridge (Amersham Biosciences, Piscataway, N.J.) and sterile filtered through Acrodisc 0.2 μm Posidyne filters (Pall Corp., Ann Arbor, Mich.). The siRNA concentration of final samples was determined using the RiboGreen assay and a siRNA standard curve. Particle size and polydispersity was determined using a Malvern Instruments Zetasizer 3000HSA (Malvern, UK). Nucleic acid encapsulation was determined using a RiboGreen assay, comparing fluorescence in the presence and absence of Triton X-100. RiboGreen fluorescence was measured using a Varian Eclipse Spectrofluorometer (Varian Inc) with λex=500 nm, λem=525 nm.
(§2) This example sets forth the physical properties of the SNALP formulations described herein. SNALP containing the various cationic lipids were prepared as described and encapsulated RNA and particle size assessed (Table 1 below). […] Polydispersity of all formulations was low, indicating a narrow distribution of particle size. RNA encapsulation in the final particles was 84-85% of the total.
(§3) Percentage Encapsulation was determined using the RiboGreen fluorescence assay to measure the amount of encapsulated nucleic acid relative to the total nucleic acid present. Particle diameter and polydispersity was measured using a Malvern Zetasizer. Values are the mean of 3 separate experiments, the error is standard deviation.

[2] = TNS assay, apparent pKa of cationic lipid incorporated in SNALP; settings: TNS fluorescence, pH varied from 4.5 to 9.5
Protocol: TNS Assay: 20 μM of SNALP lipid and 6 μM of TNS were mixed in a fluorescence cuvette in 2 mL of 20 mM sodium phosphate, 25 mM citrate, 20 mM ammonium acetate and 150 mM NaCl, at a pH that was varied from 4.5 to 9.5. Fluorescence was determined at each pH using a Varian Eclipse Spectrofluorometer (Varian Inc) with settings of λex=322 nm, λem=431 nm. Fluorescence for each system at the various pH was then normalized to the value at pH 4.5. The pKa values are the point at which 50% of the molecules present are charged. By assuming that minimum fluorescence represents zero charge, and maximum fluorescence represents 100% charge, pKa can be estimated by measuring the pH at the point exactly half way between the values of minimum and maximum charge.
TNS is electrostatically attracted to positively charged membranes. Subsequent adsorption to the lipid membrane results in the immediate environment of the TNS becoming more lipophilic, removing the water molecules that otherwise quench TNS fluorescence. Since TNS is more readily absorbed by positively charged membranes, TNS fluorescence is an indicator of positive membrane surface charge. The surface pKa values of each SNALP formulation were determined by varying the local pH in the presence of TNS.

[3] = SNALP particle diameter and polydispersity, Malvern Zetasizer; format: physicochemical; settings: SNALP DSPC:Chol:PEG-C-DMA:Cationic Lipid 20:48:2:30 molar percent; mean of 3 experiments, error is standard deviation
Protocol: as §1, §2, §3

Neuro2A cells = test: Cellular uptake of 3H-CHE-labeled SNALP; format: cell-based; settings: 24 hours
Protocol: Cellular Uptake: SNALP were prepared incorporating the non-exchangeable tritium-labeled lipid cholesteryl hexadecyl ether (3H—CHE) (11.1 μCi/μmol total lipid) [Bally et al., in Liposome Technology, Vol. III, pp. 27-41, CRC Press (1993)]. Neuro2A cells (ATCC, VA, USA) were plated in 12 well plates at 1.6×10^5 cells per well in minimal essential media. The following day, media was removed and replaced with media containing radiolabelled SNALP at 0.5 μg/mL nucleic acid. After 24 hours, the media and unincorporated SNALP were removed, adherent cells gently washed 4 times with PBS, and then lysed with 600 μL Lysis Buffer (250 mM phosphate with 0.1% Triton X-100). The resulting cell lysate (500 μL) was added to glass scintillation vials containing 5 mL Picofluor 40 (Perkin Elmer) and ^3H—CHE was determined using a Beckman LS6500 scintillation counter (Beckman Instruments). The protein content of cell lysates was determined using the Micro BCA assay (Pierce). Uptake was expressed as a percentage of the total amount of activity applied to the cells per mg of cellular protein.
The extent to which formulations are taken up by cells was measured with SNALP incorporating ^3H-labeled CHE [Bally et al., in Liposome Technology, Vol. III, pp. 27-41, CRC Press (1993)]. […] Uptake is expressed as a percentage of the total activity applied to the cells. […]

[4] = tested on: luciferase expression in Neuro2A-G cells (Neuro2A cells stably transfected to express luciferase); test: In vitro transfection: luciferase gene silencing by SNALP encapsulating anti-luciferase siRNA; format: cell-based; settings: SNALP with anti-luciferase siRNA; for knockdown in gene expression (luciferase) versus control SNALP containing mismatch siRNA: Neuro2A cells stably expressing luciferase, 48 hours; for luciferase expression relative to untreated control: after 48 hours
Protocol: In vitro Transfection: Cells were cultured in MEM (Invitrogen) containing 10% fetal bovine serum (FBS) (CanSera) and 0.25 mg/mL G418 (Invitrogen). Neuro2A-G cells (Neuro2A cells stably transfected to express luciferase [R. E. Kingston. in Current Protocols in Molecular Biology, Vol. 2, pp. 9.1.4-9.1.9, John Wiley & Sons, Inc. (1997)]) were plated at a concentration of 4×10^4 cells per well in 24-well plates and grown overnight. Cells were treated with SNALP at doses of 0.0625-1.0 μg/mL nucleic acid (AntiLuc Active or Mismatch Control) and incubated for 48 hours at 37° C. and 5% CO2. Cells were then washed with PBS and lysed with 200 μL 250 mM sodium phosphate containing 0.1% Triton X-100. The luciferase activity for each well was determined using Luciferase Reagent (Promega) and a standard luciferase protein (Roche). The luminescence for each was measured using a Berthold MicroLumatPlus LB96V plate luminometer. The resulting luciferase activity was then normalized for the amount of protein using the Micro BCA assay kit (Pierce). Luciferase knockdown relative to a control was then determined for each system.
This example describes experiments comparing expression of nucleic acids following in vitro transfection of Neuro2A cells with SNALP comprising: (1) DODAC, DODMA, or DLinDMA; (2) PEG-C-DMA; and (3) an siRNA duplex directed against luciferase encapsulated in the SNALP (i.e., siRNA comprising the following sequence: […] (SEQ ID NO:1) and targeting the DNA sequence complementary to: […] (SEQ ID NO:3)). Neuro2A cells were stably transfected with a plasmid encoding luciferase under the control of the CMV promoter (pLO55). The stably transfected cells were then transfected with SNALP comprising: 15, 20, 25, 30, 35, or 40% of DODAC, DODMA, or DLinDMA; 2% PEG-C-DMA, and an siRNA duplex directed against luciferase encapsulated in the SNALP. Luciferase protein expression was measured 48 hours after transfection with SNALP.
The ability of SNALP containing each of the four cationic lipids (i.e., DSDMA, DODMA, DLinDMA, and DLenDMA) to effect gene silencing in stably transfected Neuro2A cells was evaluated. Neuro2A cells stably transfected to express the luciferase were treated with SNALP containing anti-luciferase siRNA for 48 hours. Gene-silencing efficiency was evaluated by comparing the remaining luciferase activity in these cells to that remaining in cells treated with control SNALP containing mismatch siRNA.

Structure (SMILES)	% Encapsulation [1]	apparent (surface) pKa of cationic lipid in SNALP [2]	Diameter (nm) [3]	Polydispersity [3]	cellular uptake of 3H-CHE-labeled SNALP (Neuro2A cells)	knockdown in gene expression (luciferase) versus control SNALP containing mismatch siRNA [4]	luciferase expression relative to untreated control [4]
CC/C=C\C/C=C\C/C=C\CCCCCCCCOCC(CN(C)C)OCCCCCCCC/C=C\C/C=C\C/C=C\CC (centres unmarked) [DLenDMA, 1,2-Dilinolenyloxy-N,N-dimethylaminopropane]	85 ± 1%	6.7	132 ± 7 nm	0.13 ± 0.03	particularly limited; also recorded: limited when compared to that of the DLinDMA formulation	slightly less efficient than those containing DLinDMA	32%
CCCCCCCCCCCCCCCCCC[N+](C)(C)CCCCCCCCCCCCCCCCCC [DSDMA, Distearyldimethylammonium]	67% and 67 ± 3%	~7.6	180 nm and 182 ± 11 nm	0.15 ± 0.03	greatest degree of uptake; also recorded: taken up most readily	no activity; also recorded: almost no capacity for effecting RNA interference	no effect on luciferase gene expression
